In patent publication US4542153A, “Methods for changing calcium metabolism within the cells of a mammal” (The Ohio State University Research Foundation, priority 1983, dated 1985):

How the values were obtained:
[1] = tested on: thoracic aorta strips contracted with potassium chloride; test: Vasodilator activity: potassium chloride-contracted aortic strips; assay type: cell-based, male Sprague-Dawley rats; conditions: rat aorta contracted with 40 mM potassium chloride; read-out: IC50 (mean and range of SEM) KCl
Text: (§1) Pr-MDI, bu-MDI, Q-bu-MDI and the compounds of Formulae IIIA, IIIB and IVA having the two R1 groups together forming a methylene group, each R3 a methyl group and R2 an n-propyl group or n-butyl group (the compounds of Formula III are hereinafter abbreviated as sat-pr-MDI and sat-bu-MDI respectively, reference being made where necessary to the cis isomer of Formula III A or the trans isomer of Formula III B while the compounds of Formula IV are similarly referred to as cis sat-Q-pr-MDI and cis sat-Q-bu-MDI) were tested for vasodilator activity by the method of R. F. Furchgott and S. Bhadrakom, J. P. Pharmacol. Ex. Ther., 108, 129-143 (1953).
(§2) The vasodilator activity tests were conducted on male Sprague-Dawley rats, obtained from Harlan Industries, Inc., Cumberland, Indiana. The rats, weight 250-300 g., were sacrified by cervical dislocation and a 2.5 cm. segment of the thoracic aorta was removed and rinshed in physiological buffer. Each aortic segment was cleaned of connective tissue and cut spirally two yield to strips, each 3 by 15 mm. Each strip was mounted isometrically under a tension of 1 g in a 10 ml. tissue bath thermostatically maintained at 37° C. and containing a normal physiological solution aerated with a 95% oxygen/5% carbon dioxide mixture. Forces generated by the strip were monitored using a Grass FT03 isometric transducer coupled to a Grass module 7D polygraph recorder, both the transducer and the recorder being obtained from Grass Instrument Co., of Quincy, Mass.
(§3) After the aortic tissue had been allowed to equilibriate for 1-1.5 hours in the normal physiologic solution, tissue contraction was induced by introducing either 10^-7 M norepinephrine or 40mM potassium chloride buffer to the tissue bath.
(§4) To avoid interference by loss of tension due to time dependent tissue fatigue, separate preliminary experiments were performed to determine the degree of tissue relaxation due to such fatigue and the value of the control tension generated by norepinephrine or potassium chloride prior to the addition of the test compounds was adjusted whenever the duration of the experiment was such that fatigue could be expected to cause more than a 6% loss of tension. […] All concentrations mentioned hereinafter represent the final concentration of the test compound after dilution in the tissue bath.
(§5) The figures of concentration against percent response data obtained from each aortic tissue were transformed to its appropriate probit value and IC50 values were then estimated using linear regression analysis. The normal physiological solution contained 6.9 g/l of sodium chloride, 0.35 g/l of potassium chloride, 0.11 g/l of magnesium chloride hexahydrate, 0.138 g/l of sodium dihydrogen phosphate, 2.1 g/l of sodium bicarbonate, 0.01 g/l of EDTA, 0.368 g/l of calcium chloride dihydrate and 2.0 g/l of dextrose. The high potassium buffers were obtained by substituting potassium chloride for sodium chloride on an equimolar basis to maintain tonicity.

[2] = tested on: chloroform anoxia arrhythmia in mice; test: Chloroform Anoxia Assay (chloroform-induced ventricular fibrillation); assay type: in vivo, Female Swiss albino mice; conditions: for ED50: i.p., 10 min before chloroform, table: mean values and 95% confidence limits, 10 min
Method: The same four compounds were tested for their ability to protect mice from chloroform anoxia by the classical chloroform inhalation procedure described in Lawson J. W.: Antiarrhythmic activity of some isoquinoline derivatives determined by a rapid screening procedure in the mouse, J. Pharmacol. Exp. Ther. 160: 22-31, (1968). In this method, chloroform inhalation leading to respiratory arrest produces ventricular fibrillation. Female Swiss albino mice procured from Laboratory Supply Company, Indianapolis, Indiana, weighing 16-22 g, were pretreated intraperitoneally with the compound under test dissolved in a 5% dextrose solution 10 minutes before exposure to chloroform in a closed container containing chloroform-saturated cotton. The mice were removed from the chloroform atmosphere immediately after respiratory arrest and the electrocardiograph lead II monitored. The ED 50 and 95% confidence limits calculated for the anti-arrhythmic agents by the standard method of Litchfield and Wilcoxon.

[3] = tested acutely and subchronically; earlier published work; cited from earlier work
[4] = tested on: calcium-induced arrhythmias in rats; test: Calcium-induced arrhythmias (CaCl2 injected i.v. into anesthetized rats)
Text: The experimental method used was that described in Lynch J. J., Rahwan R. G., Witiak D. T.: Effects of 2-substituted-3-dimethylamino-5,6-methylenedioxyindenes on calcium-inducedarrhythmias, J. Cardiovasc. Pharmacol. 3: 49-60 (1981). Male Sprague-Dawley rats weighing 180-250 grams were anesthetized with sodium pentobarbital and a cannula was inserted into the left jugular vein for drug administration. Electrocardiograph equipment was connected to the rat and the lead II was continuously monitored. The compound under test, dissolved in 5% dextrose solution, was administered into the jugular vein of anesthetized rats over a 40 second period. Ten minutes after this treatment, an acute dose of 1 ml/kg of a 10% CaCl2.2H2 O solution was injected into the jugular vein over a period of 10 seconds. The arrhythmias resulting from the calcium administration were graded according to the following criteria: (a) initial change in heart rate following calcium administration; (b) incidences of sinoatrial block, atrioventricular block, ectopic beats, and ventricular flutter and fibrillation; (c) time required for reversion to control ECG; and (d) incidence of mortality.

[5] = tested on: spontaneously beating right atria; test: Effects on isolated guinea pig atria: spontaneously beating right atria; assay type: cell-based
Text: (§6) The effects of pr-MDI, bu-MDI and Q-bu-MDI on the mechanical and electrical behavior of isolated guinea pig atria were investigated by the method of H. Nawrath, J. Pharmacol. Exp. Ther., 16, 176-182 (1980). The compounds were investigated over the concentration range of 10^-8 to 3×10^-4 M.
(§7) English short-haired guinea pigs, supplied by Carr Animal Supply, of Powell, Ohio, weighing 300-600 g. were killed by a blow on the head and both atria of the animal were quickly dissected out and suspended in a water-jacketed organ bath containing Krebs-Henseleit solution through which a 95% oxygen/5% carbon dioxide mixture was bubbled at 32° C. The solution contained 6.92 g/l of sodium chloride, 0.35 g/l of potassium chloride, 0.29 g/l of magnesium […] heptahydrate, 0.3 g/l of calcium chloride dihydrate, 0.16 g/l of potassium dihydrogen phosphate, 2.1 g/l of sodium bicarbonate and 2.1 g/l of dextrose. The contractile force generated by the isolated artria was recorded isometrically under a 500 mg. preload using a Narco Biosystems force transducer connected to a physiograph DMP-4B recorder, both the transducer and the recorder being obtained from E & M Instrument Co. of Houston, Texas.
Spontaneously beating right atria were tested in a similar manner.

[6] = tested on: mice; test: Toxicity Tests (intraperitoneal LD50); assay type: in vivo; conditions: i.p., table: mean values and 95% confidence limits
[7] = tested on: thoracic aorta strips contracted with norepinephrine; test: Vasodilator activity: norepinephrine-contracted aortic strips; assay type: cell-based, male Sprague-Dawley rats
Text: as §1, §2, §3, §4, §5

[8] = tested on: isolated left atria; test: Effects on isolated guinea pig atria: electrically driven left atria; assay type: cell-based
Text: as §6, §7
The isolated left atria were electrically driven by square wave impulses of 3 milliseconds duration at a frequency of 3 Hz. and a voltage of twice the threshold voltage, delivered by a Grass S9 stimulator obtained from Grass Instrument Co., of Quincy, Massachusetts. Two platinum electrodes were used for the stimulation, the anode being in direct contact with the atrial tissue while the cathode had the form of a ring suspended 2.5 centimeters above the anode. Before redetermination of the threshold voltage and generation of a predrug (control) frequency-force profile over the range of 1-5 Hz., an equilibriation time of one hour was allowed. The system was then re-equilibriated at 3 Hz. and twice the threshold voltage as before, then one cumulative dose-response curve of contractile force for one test compound was obtained, followed immediately by redetermination of the threshold voltage and the generation of a post-drug frequency-force profile.
A paired Student's t-test was used to compare predrug and postdrug threshold voltages for each left atrial preparations as well as to compare developed tension at each frequency in the profile of each left atrial preparation. P values of less than 0.05 were considered statistically significant.

## CCCCC1=Cc2cc3c(cc2C1N(C)C)OCO3.Cl (centres unmarked) [bu-MDI, 2-butyl-5-6methylenedioxyindene-1-dimethylammonium hydrochloride, reference compound]
[1]
  IC50: 20.3 µM
[2]; ED50 from chloroform anoxia, LD50 i.p.
  Therapeutic Index (LD50/ED50): 4.2
[2]; earlier work of applicants
  potency against chloroform/anoxia-induced arrhythmia versus quinidine: more potent than quinidine
[2]; n = 40, hydrochloride
  ED50: 44 mg/kg
[2]; n = 40, listed as Bu--MDI, hydrochloride
  ED50: 44.0 mg/kg
[2]; quinidine = 1.00, chloroform anoxia
  Antiarrhythmic Potency: 1.52
[3]
  toxicity: remarkable lack of toxicity
[4]; earlier work of applicants
  potency and safety against calcium-induced arrhythmia versus verapamil: more potent and safer then verapamil
[4]; i.v., 10 min before CaCl2
  concentration effective against calcium-induced arrhythmias: 3.75 mg/kg
[4]; i.v., Q-bu-MDI at 0.5 mg/kg, pr-MDI and bu-MDI at 3.75 mg/kg
  deleterious side effects: without deleterious side effects
[5]; 10^-4 M and 3×10^-4 M
  time to sustained peak effect, right atria, highest concentrations: 5 to 10 min
[5]; 10^-8 to 3×10^-4 M
  effect on spontaneous atrial rate: substantially identical to that of Q-bu-MDI
[5]; except at 3×10^-4 M for Q-bu-MDI
  effect on the contractile force of right atria: much greater negative inotropy
[6]
  LD50: 185 mg/kg
[7]; norepinephrine- or KCl-treated tissue
  relaxation of the aortic tissue: relaxed the aortic tissue
[7]; norepinephrine-treated aortic tissue
  comparative vasodilator activity, norepinephrine-treated tissue: considerably more active than Q-bu-MDI
[7]; rat aorta contracted with 10^-7 M norepinephrine, read-out: IC50 (mean and range of SEM) Norepinephrine
  IC50: 74.1 µM
[8]; 3×10^-4 M
  effect on frequency-force profile/relation of the stimulated left atrium: significant depression of the frequency-force profile
  effect on threshold voltage required to drive the atria: significantly decreased the threshold voltage
[8]; 10^-8 to 3×10^-4 M
  effect on contractile force of the electrically stimulated left atrium: considerably greater than that of Q-bu-MDI
